Article PMC10861955 (Heliyon, 2024)

Biological target: T1, Helicobacter pylori inosine 5′-monophosphate dehydrogenase (HpIMPDH) (Helicobacter pylori, UniProt P56088)
T1 sequence (P56088 1-481): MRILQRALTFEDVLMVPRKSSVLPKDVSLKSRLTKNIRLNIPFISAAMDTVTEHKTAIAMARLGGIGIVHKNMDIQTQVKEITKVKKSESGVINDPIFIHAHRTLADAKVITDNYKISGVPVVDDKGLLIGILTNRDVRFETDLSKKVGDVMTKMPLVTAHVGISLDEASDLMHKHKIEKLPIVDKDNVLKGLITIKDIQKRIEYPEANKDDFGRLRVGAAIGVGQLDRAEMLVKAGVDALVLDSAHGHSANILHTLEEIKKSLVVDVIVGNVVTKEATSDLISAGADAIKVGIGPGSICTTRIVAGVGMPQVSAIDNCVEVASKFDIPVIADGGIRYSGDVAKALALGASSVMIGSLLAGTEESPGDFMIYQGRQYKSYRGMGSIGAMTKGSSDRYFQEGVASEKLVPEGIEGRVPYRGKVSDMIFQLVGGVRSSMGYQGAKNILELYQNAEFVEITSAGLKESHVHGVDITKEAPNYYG
Experiment: fluorescence assay of NADH formation, […] HpIMPDH
Assay type: biochemical

| SMILES | IC50 |
| --- | --- |
| COc1cc(OC)c2ccc(=O)oc2c1 [Compound 3, 5,7-di-methoxy-2H-chromen-2-one] | 2400 nM |
| COc1c2occc2cc2ccc(=O)oc12 [Compound 2, xanthotoxin] | 2800 nM |
